Test results as given in patent US20260083865A1, “PROSTATE SPECIFIC MEMBRANE ANTIGEN (PSMA) LIGANDS AND USE THEREOF” (priority 2022, published 2026).
Numbered stars: 1 amine (or outer) side, 2 acyl side, 3 side chain; on linkers, the order of the positions; unused ones are H or OH. Bridge positions count the residues as written; N and C are the ends. Square brackets hold non-standard residues; d marks the D form. Peptide text beside a SMILES is read from it. * marks the point of attachment. TtdsdLys(DOTA)NH2 = NC(=O)[C@@H](CCCCNC(=O)CN1CCN(CC(=O)O)CCN(CC(=O)O)CCN(CC(=O)O)CC1)NC(=O)CCC(=O)NCCCOCCOCCOCCCN*; DOTA = O=C(O)CN1CCN(CC(=O)O)CCN(CC(=O)*)CCN(CC(=O)O)CC1; Phe(4-Cl) = N[C@@H](Cc1ccc(Cl)cc1)C(=O)O; Arg(Me) = CNC(=N)NCCC[C@H](N)C(=O)O; Ethylenediamine = C(CN[*:2])N[*:1]; NMeT = CN[C@H](C(=O)O)[C@@H](C)O; X1 = O=C(CC1CCN([*:1])CC1)[*:2]; Cit = NC(=O)NCCC[C@H](N)C(=O)O; Lys(Me) = CNCCCC[C@H](N)C(=O)O; Tle = CC(C)(C)[C@H](N)C(=O)O; Hexanoyl = CCCCCC(=O)*; Aib = CC(C)(N)C(=O)O; CO = O=C([*:1])[*:2]; βAla = NCCC(=O)O; NHBu = CCCCN*

Columns and labels:
PC3-PIP tumor model = test system: PC3-PIP tumor model; parameters: species or system mice; conditions: mouse, in vivo
From the text: Radioactively labeled compounds can be detected by imaging methods such as SPECT and PET. Furthermore, the data acquired by such techniques can be confirmed by direct measurement of radioactivity contained in the individual organs prepared from an animal injected with a radioactively labeled compound of the disclosure. Thus, the biodistribution (the measurement of radioactivity in individual organs) of a radioactively labeled compound can be determined and analyzed. […] All animal experiments were conducted in compliance with the German animal protection laws. Male swiss or NMRI nude mice (6-8 weeks old, Janvier Labs, France) were inoculated with 5×10^6 PC3-PIP cells in the right shoulder. For selected compounds an additional model was used, here male NMRI nude mice (6-8 weeks old, Janvier Labs, France) were inoculated with 5×10^6 or/1×10^7 C4-2 cells in the right shoulder. When tumors reached an appropriate size, the mice received ˜30 MBq ^111In-labeled compounds of the disclosure (diluted to 100 μL with PBS) administered intravenously via the tail vein. Images were obtained on a NanoSPECT/computed tomography system (Mediso Medical Imaging Systems, Budapest, Hungary) using exemplarily the following acquisition and reconstruction parameters (Table 10). [table] Imaging data were saved as DICOM files and analysed using VivoQuant™ software (Invicro, Boston, USA). In brief, regions of interest (ROIs) were drawn based on computed tomography images for the relevant organs and tissue regions such as heart (estimate of blood pool, bps), kidney, and tumor. The resulting numeric data expressed as a percentage of injected dose per gram of tissue (% ID/g) are presented in FIGS. 3(a)-3(ii) for the PC3-PIP model and FIGS. 4(a)-4(r) for the C4-2 model. Bars show mean % ID/g values of two to three animals per time point. Error bars indicate the value range (minimum and maximum values).

[1] = target: T1, Fc-fusion protein of human PSMA (hPSMA-Fc) (Homo sapiens, UniProt Q04609); test: Surface plasmon resonance assay (Biacore T200, single cycle kinetic); assay type: binding; conditions: pKD category for PSMA SPR activity assay, hPSMA-Fc, 25° C.; read-out: pKD CAT (converted)
T1 construct: purchased Acro Biosystems PSA-H5264
T1 sequence (Q04609 44-750 limits assumed): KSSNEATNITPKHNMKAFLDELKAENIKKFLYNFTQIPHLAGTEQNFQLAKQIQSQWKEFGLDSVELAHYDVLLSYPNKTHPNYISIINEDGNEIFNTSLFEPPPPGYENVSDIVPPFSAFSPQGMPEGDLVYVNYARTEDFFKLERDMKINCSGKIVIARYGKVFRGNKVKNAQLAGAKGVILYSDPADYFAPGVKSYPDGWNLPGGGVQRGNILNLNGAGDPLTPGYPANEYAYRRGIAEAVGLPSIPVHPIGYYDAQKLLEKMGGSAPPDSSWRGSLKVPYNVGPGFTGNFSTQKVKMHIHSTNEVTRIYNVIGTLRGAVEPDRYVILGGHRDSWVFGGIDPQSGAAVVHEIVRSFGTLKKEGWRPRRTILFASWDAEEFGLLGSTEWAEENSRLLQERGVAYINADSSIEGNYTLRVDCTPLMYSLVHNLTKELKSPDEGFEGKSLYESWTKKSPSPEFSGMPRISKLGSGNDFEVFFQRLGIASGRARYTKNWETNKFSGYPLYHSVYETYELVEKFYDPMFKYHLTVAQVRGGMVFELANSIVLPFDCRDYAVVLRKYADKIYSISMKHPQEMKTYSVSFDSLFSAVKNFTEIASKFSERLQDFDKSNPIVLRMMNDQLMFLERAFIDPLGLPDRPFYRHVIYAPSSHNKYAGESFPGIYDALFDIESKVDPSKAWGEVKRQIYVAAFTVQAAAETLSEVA
In short: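 hPSMA-Fc was captured (~1000 RU) on an Fc-binding-peptide CM5 chip, and compounds were run in single cycle kinetic mode at 25° C in HBST with 0.1% DMSO. Double-blank-corrected sensorgrams were fitted to a 1:1 Langmuir model to give KD, reported as pKD.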

[2] = target: T2, PSMA-expressing C4-2 cells (Homo sapiens, UniProt Q04609); test: FACS binding assay (competition with 50 nM PSM-0183); conditions: pIC50 category of FACS binding, C4-2 cells; read-out: pIC50 [C4-2] CAT (converted)
T2 construct: PSMA-expressing C4-2 cells (ATCC, Cat. No. CRL-3314) were cultured in RPMI-1640; host or cells: C4-2 cells
T2 sequence (Q04609 whole entry): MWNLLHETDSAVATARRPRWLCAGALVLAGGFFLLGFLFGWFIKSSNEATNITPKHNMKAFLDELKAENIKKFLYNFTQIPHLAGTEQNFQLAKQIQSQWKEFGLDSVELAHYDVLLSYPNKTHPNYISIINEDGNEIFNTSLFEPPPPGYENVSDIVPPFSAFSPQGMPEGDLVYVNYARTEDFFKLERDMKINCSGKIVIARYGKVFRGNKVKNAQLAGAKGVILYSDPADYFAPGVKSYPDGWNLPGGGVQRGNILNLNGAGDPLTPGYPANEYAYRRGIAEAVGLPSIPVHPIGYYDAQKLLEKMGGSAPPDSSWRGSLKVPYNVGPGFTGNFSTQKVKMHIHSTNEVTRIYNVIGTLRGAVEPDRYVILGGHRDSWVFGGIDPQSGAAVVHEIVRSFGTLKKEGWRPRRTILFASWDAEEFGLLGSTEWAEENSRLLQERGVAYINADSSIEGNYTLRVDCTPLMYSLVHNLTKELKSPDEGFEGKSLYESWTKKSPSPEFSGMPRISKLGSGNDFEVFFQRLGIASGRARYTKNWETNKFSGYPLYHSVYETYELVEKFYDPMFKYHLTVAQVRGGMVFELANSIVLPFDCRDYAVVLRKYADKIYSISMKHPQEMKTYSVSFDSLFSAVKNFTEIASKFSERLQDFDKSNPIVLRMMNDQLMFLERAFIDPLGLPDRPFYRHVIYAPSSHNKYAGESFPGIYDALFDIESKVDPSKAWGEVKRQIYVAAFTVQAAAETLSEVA
In short: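 C4-2 cells were incubated 1 h at 4 °C with 50 nM AF488-labelled peptide PSM-0183 plus increasing test compound concentrations, then washed twice in ice-cold buffer. Median fluorescence in the AF488 channel was read by flow cytometry. IC50/pIC50 was derived by 4PL fitting of MFI versus concentration.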

Structure (SMILES) | AUC ratio [T/K] (PC3-PIP tumor model) | Tumor AUC (PC3-PIP tumor model) [% ID/g*h] | Kd [1] [nM] | IC50 [2] [nM]
C[C@@H](O)[C@H](NC(=O)[C@@H](NC(=O)[C@@H]1CSSC[C@H](NC(=O)[C@H](Cc2ccc(Cl)cc2)NC(=O)C(C)(C)NC(=O)[C@@H](NC(=O)CC2CCN(C(=O)CN3CCN(CC(=O)O)CCN(CC(=O)O)CCN(CC(=O)O)CC3)CC2)[C@@H](C)O)C(=O)N[C@@H](CCCCN)C(=O)N[C@@H](CCCNC(N)=O)C(=O)NC(C)(C)C(=O)N[C@@H](CC(N)=O)C(=O)N1)C(C)(C)C)C(N)=O [PSM-0365, DOTA-Cmp-Thr-Aib-Pcf-[Cys-Lys-Cit-Aib-Asn-Cys]-Tle-Thr-NH2] ({DOTA}-[X1]T[Aib][Phe(4-Cl)]CK[Cit][Aib]NC[Tle]T-NH2; disulfide 5-10) | 1.6 | 140 | < 12.6 | < 200
CCCCNC(=O)N[C@H](C(=O)NC(C)(C)C(=O)N[C@@H](Cc1ccc(Cl)cc1)C(=O)N[C@H]1CSSC[C@@H](C(=O)N[C@H](C(=O)N[C@H](C(=O)N2CCC(CC(=O)N[C@H](CCCCNC(=O)CN3CCN(CC(=O)O)CCN(CC(=O)O)CCN(CC(=O)O)CC3)C(N)=O)CC2)[C@@H](C)O)C(C)(C)C)NC(=O)[C@H](CC(N)=O)NC(=O)C(C)(C)NC(=O)[C@H](CCCNC(=N)N)NC(=O)[C@H](CCCCN)NC1=O)[C@@H](C)O [PSM-0371, nBuCAyl-Thr-Aib-Pcf-[Cys-Lys-Arg-Aib-Asn-Cys]-Tle-Thr-Cmp-lys(DOTA)-NH2] ({NHBu-CO}-T[Aib][Phe(4-Cl)]CKR[Aib]NC[Tle]T[X1][dK](DOTA)-NH2; disulfide 4-9) | 0.62 | 120 | < 12.6 | < 200
CC(C)[C@H](NC(=O)[C@@H]1CSSC[C@H](NC(=O)[C@H](Cc2ccc(Cl)cc2)NC(=O)C(C)(C)NC(=O)[C@@H](NC(=O)CC2CCN(C(=O)CN3CCN(CC(=O)O)CCN(CC(=O)O)CCN(CC(=O)O)CC3)CC2)[C@@H](C)O)C(=O)N[C@@H](CCCCN)C(=O)N[C@@H](CCCNC(=N)N)C(=O)NC(C)(C)C(=O)N[C@@H](CC(N)=O)C(=O)N1)C(=O)N(C)[C@H](C(N)=O)[C@@H](C)O [PSM-0377, DOTA-Cmp-Thr-Aib-Pcf-[Cys-Lys-Arg-Aib-Asn-Cys]-Val-Nmt-NH2] ({DOTA}-[X1]T[Aib][Phe(4-Cl)]CKR[Aib]NCV[NMeT]-NH2; disulfide 5-10) | 1.1 | 160 | < 12.6 | < 200
C[C@@H](O)[C@H](NC(=O)CC1CCN(C(=O)CN2CCN(CC(=O)O)CCN(CC(=O)O)CCN(CC(=O)O)CC2)CC1)C(=O)NC(C)(C)C(=O)N[C@@H](Cc1ccc(Cl)cc1)C(=O)N[C@H]1CSSC[C@@H](C(=O)N[C@H](C(=O)NCCN)C(C)(C)C)NC(=O)[C@H](CC(N)=O)NC(=O)C(C)(C)NC(=O)[C@H](CCCNC(=N)N)NC(=O)[C@H](CCCCN)NC1=O [PSM-0384, DOTA-Cmp-Thr-Aib-Pcf-[Cys-Lys-Arg-Aib-Asn-Cys]-Tle-en] ({DOTA}-[X1]T[Aib][Phe(4-Cl)]CKR[Aib]NC[Tle]-Ethylenediamine; disulfide 5-10) | 0.30 | 220 | < 12.6 | < 200
CCCCCC(=O)N[C@H](C(=O)NC(C)(C)C(=O)N[C@@H](Cc1ccccc1)C(=O)N[C@H]1CSSC[C@@H](C(=O)N[C@H](C(=O)N[C@H](C(=O)N[C@@H](CC(=O)O)C(=O)NCCCOCCOCCOCCCNC(=O)CCC(=O)N[C@H](CCCCNC(=O)CN2CCN(CC(=O)O)CCN(CC(=O)O)CCN(CC(=O)O)CC2)C(N)=O)[C@@H](C)O)C(C)(C)C)NC(=O)[C@H](CC(N)=O)NC(=O)C(C)(C)NC(=O)[C@H](CCCNC(=N)N)NC(=O)[C@H](CCCCN)NC1=O)[C@@H](C)O [PSM-0425, Hex-Thr-Aib-Phe-[Cys-Lys-Arg-Aib-Asn-Cys]-Tle-Thr-Asp-Ttds-lys(DOTA)-NH2] (Hexanoyl-T[Aib]FCKR[Aib]NC[Tle]TD-{TtdsdLys(DOTA)NH2}; disulfide 4-9) | 0.53 | 230 | < 12.6 | < 200
CC(=O)N[C@H](C(=O)NC(C)(C)C(=O)N[C@@H](Cc1ccccc1)C(=O)N[C@H]1CSSC[C@@H](C(=O)N[C@H](C(=O)N[C@H](C(=O)N2CCC(CC(=O)N[C@H](CCCCNC(=O)CN3CCN(CC(=O)O)CCN(CC(=O)O)CCN(CC(=O)O)CC3)C(N)=O)CC2)[C@@H](C)O)C(C)(C)C)NC(=O)[C@H](CC(N)=O)NC(=O)C(C)(C)NC(=O)[C@H](CCCNC(=N)N)NC(=O)[C@H](CCCCN)NC1=O)[C@@H](C)O [PSM-0428, Ac-Thr-Aib-Phe-[Cys-Lys-Arg-Aib-Asn-Cys]-Tle-Thr-Cmp-lys(DOTA)-NH2] (Ac-T[Aib]FCKR[Aib]NC[Tle]T[X1][dK](DOTA)-NH2; disulfide 4-9) | 1.2 | 170 | < 12.6 | < 200
C[C@@H](O)[C@H](NC(=O)CC1CCN(C(=O)CN2CCN(CC(=O)O)CCN(CC(=O)O)CCN(CC(=O)O)CC2)CC1)C(=O)NC(C)(C)C(=O)N[C@@H](Cc1ccc(Cl)cc1)C(=O)N[C@H]1CSSC[C@@H](C(=O)N[C@H](C(N)=O)C(C)(C)C)NC(=O)[C@H](CC(N)=O)NC(=O)C(C)(C)NC(=O)[C@H](CCCNC(=N)N)NC(=O)[C@H](CCCCN)NC1=O [PSM-0433, DOTA-Cmp-Thr-Aib-Pcf-[Cys-Lys-Arg-Aib-Asn-Cys]-Tle-NH2] ({DOTA}-[X1]T[Aib][Phe(4-Cl)]CKR[Aib]NC[Tle]-NH2; disulfide 5-10) | 1.7 | 270 | < 12.6 | < 200
C[C@@H](O)[C@H](NC(=O)CC1CCN(C(=O)CN2CCN(CC(=O)O)CCN(CC(=O)O)CCN(CC(=O)O)CC2)CC1)C(=O)NC(C)(C)C(=O)N[C@@H](Cc1ccccc1)C(=O)N[C@H]1CSSC[C@@H](C(=O)N[C@H](C(=O)NCCC(N)=O)C(C)(C)C)NC(=O)[C@H](CC(N)=O)NC(=O)C(C)(C)NC(=O)[C@H](CCCNC(=N)N)NC(=O)[C@H](CCCCN)NC1=O [PSM-0449, DOTA-Cmp-Thr-Aib-Pho-[Cys-Lys-Arg-Aib-Asn-Cys]-Tle-Bal-NH2] ({DOTA}-[X1]T[Aib]FCKR[Aib]NC[Tle][βAla]-NH2; disulfide 5-10) | 1.4 | 220 | < 12.6 | < 200
C[C@@H](O)[C@H](NC(=O)CC1CCN(C(=O)CN2CCN(CC(=O)O)CCN(CC(=O)O)CCN(CC(=O)O)CC2)CC1)C(=O)NC(C)(C)C(=O)N[C@@H](Cc1ccc(Cl)cc1)C(=O)N[C@H]1CSSC[C@@H](C(=O)N[C@H](C(=O)NCCC(N)=O)C(C)(C)C)NC(=O)[C@H](CC(N)=O)NC(=O)C(C)(C)NC(=O)[C@H](CCCNC(=N)N)NC(=O)[C@H](CCCCN)NC1=O [PSM-0467, DOTA-Cmp-Thr-Aib-Pcf-[Cys-Lys-Arg-Aib-Asn-Cys]-Tle-Bal-NH2] ({DOTA}-[X1]T[Aib][Phe(4-Cl)]CKR[Aib]NC[Tle][βAla]-NH2; disulfide 5-10) | 1.3 | 280 | < 12.6 | < 200
CNCCCC[C@@H]1NC(=O)[C@@H](NC(=O)[C@H](Cc2ccc(Cl)cc2)NC(=O)C(C)(C)NC(C)=O)CSSC[C@@H](C(=O)N[C@H](C(=O)NCCNC(=O)CN2CCN(CC(=O)O)CCN(CC(=O)O)CCN(CC(=O)O)CC2)C(C)(C)C)NC(=O)[C@H](CC(N)=O)NC(=O)C(C)(C)NC(=O)[C@H](CCCNC(=N)NC)NC1=O [PSM-0481, Ac-Aib-Pcf-[Cys-Lys(Me)-Arg(Me)-Aib-Asn-Cys]-Tle-en-DOTA] (Ac-[Aib][Phe(4-Cl)]C[Lys(Me)][Arg(Me)][Aib]NC[Tle]-{Ethylenediamine-DOTA}; disulfide 3-8) | 2.6 | 130 | < 12.6 | < 200
C[C@@H](O)[C@H](NC(=O)[C@@H](NC(=O)[C@@H]1CSSC[C@H](NC(=O)[C@H](Cc2ccccc2)NC(=O)C(C)(C)NC(=O)[C@@H](NC(=O)CC2CCN(C(=O)CN3CCN(CC(=O)O)CCN(CC(=O)O)CCN(CC(=O)O)CC3)CC2)[C@@H](C)O)C(=O)N[C@@H](CCCCN)C(=O)N[C@@H](CCCNC(=N)N)C(=O)NC(C)(C)C(=O)N[C@@H](CC(N)=O)C(=O)N1)C(C)(C)C)C(N)=O [PSM-0492, DOTA-Cmp-Thr-Aib-Phe-[Cys-Lys-Arg-Aib-Asn-Cys]-Tle-Thr-NH2] ({DOTA}-[X1]T[Aib]FCKR[Aib]NC[Tle]T-NH2; disulfide 5-10) | 2.1 | 180 | < 12.6 | < 200
